Measurements: patent publication US20160367505A1, “PROTOTYPICAL ANALGESIC PROFILE OF N-STEARYL DOPAMINE (NS-DA)” (priority 2015, published 2016)

Tests used:
locomotion = details: mice and rats; studies of the early ninety's; cited from earlier work
brain dopamine turnover = details: mice and rats; studies of the early ninety's; cited from earlier work
[1] = test system: Paclitaxel induced pain sensitization in the formalin test of pain; assay: Paclitaxel induced neuropathic sensitization (PINS) in the formalin test of pain; type: in vivo, mice; details: for PINS diminished: per os in Tween-80 (5%) suspension, vs Tween-80 (5%) controls
Text: NS-DA was synthesized and studied pharmacologically in the early ninety's.

## CCCCCCCCCCCCCCCCCC(=O)NCCc1ccc(O)c(O)c1 [NS-DA]
locomotion
  effect on locomotion: hypomotility
Brain dopamine turnover
  effect on brain dopamine turnover: decrease of the brain dopamine turnover
[1]; 0-5 mn acute pain phase, females
  analgesic effect (decrease): 65%
[1]; 0-5 mn acute pain phase, male mice
  analgesic effect: not significant
[1]; 40 mg/kg ip in Cremophor.EL, 35-40 mn central sensitization phase, 1 hour after administration, vs Cremophor.EL control
  suppression of PINS: 94.8%
[1]; 35-40 mn sensitization phase, males and females
  analgesic effect (decrease): about 95%
[1]; 55-60 mn sensitization phase, female mice
  analgesic effect (decrease): 95%
[1]; 55-60 mn sensitization phase, males
  analgesic effect (decrease): 58%
[1]; NS-DA 10 mg/kg ip alone, 35-40 mn central sensitization phase
  effect on PINS: inactive
[1]; formalin test, mice, general statement
  analgesic activity against PINS: high analgesic activity
[1]; 1 hour after administration
  PINS diminished: 39%
[1]; 2 hours after administration
  PINS diminished: 62%
[1]; 4 hours after administration
  PINS diminished: 76%

## CN1CC[C@]23c4c5ccc(O)c4O[C@H]2[C@@H](O)C=C[C@H]3[C@H]1C5 [morphine, reference compound]
[1]; morphine 3 mg/kg sc alone, 35-40 mn central sensitization phase
  decrease of PINS: 37%
